# Legend:
# Type in all cases: in vivo
# [1] = test system: morningglory (Ipomoea spp.); assay: Test A pre-/postemergence: morningglory
# How it was run: (§1)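 Injury was scored visually on a 0 (no effect) to 100 (complete control) scale versus untreated controls roughly ten days after treatment in the greenhouse. Compounds, formulated in surfactant-containing non-phytotoxic solvent, went on as soil-directed preemergence spray or postemergence to one- to two-leaf plants 2–10 cm tall.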
# [2] = test system: ducksalad (Heteranthera limosa); assay: Test B flooded paddy: ducksalad; settings: Flood; 125 g ai/ha; applied to paddy water at 2-leaf stage; visually evaluated after 13 to 15 days
# How it was run: (§2)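 At two leaves, seedlings received the test compound via the paddy water, pots having been flooded 3 cm over the soil surface and kept so. Greenhouse-held for 13 to 15 days, then judged by eye against controls on a scale running 0 (no effect) to 100 (complete control).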
# [3] = test system: barnyardgrass (Echinochloa crus-galli); assay: Test B flooded paddy: barnyardgrass; settings: Flood; 125 g ai/ha; applied to paddy water at 2-leaf stage; visually evaluated after 13 to 15 days
# How it was run: as §2
# [4] = test system: crabgrass, large (large crabgrass, Digitaria sanguinalis); assay: Test A pre-/postemergence: crabgrass, large
# How it was run: as §1
# [5] = test system: foxtail, giant (giant foxtail, Setaria faberii); assay: Test A pre-/postemergence: foxtail, giant
# How it was run: as §1
# corn (Zea mays) = assay: Test A pre-/postemergence: corn
# How it was run: as §1
# [6] = test system: velvetleaf (Abutilon theophrasti); assay: Test A pre-/postemergence: velvetleaf
# How it was run: as §1
# [7] = test system: barnyardgrass (Echinochloa crus-galli); assay: Test A pre-/postemergence: barnyardgrass
# How it was run: as §1
# [8] = test system: sedge, umbrella (small-flower umbrella sedge Cyperus difformis); assay: Test B flooded paddy: sedge, umbrella; settings: Flood; 125 g ai/ha; applied to paddy water at 2-leaf stage; visually evaluated after 13 to 15 days
# How it was run: as §2
# [9] = test system: pigweed (Amaranthus retroflexus); assay: Test A pre-/postemergence: pigweed
# How it was run: as §1
# [10] = test system: wheat (Triticum aestivum); assay: Test A pre-/postemergence: wheat
# How it was run: as §1
# rice (Oryza sativa) = assay: Test B flooded paddy: rice; settings: Flood; 125 g ai/ha; applied to paddy water at 2-leaf stage; visually evaluated after 13 to 15 days
# How it was run: as §2
# [11] = Postemergence, 125 g ai/ha, 0 to 100 scale, 0 is no effect, 100 is complete control
# [12] = Postemergence, 500 g ai/ha, 0 to 100 scale, 0 is no effect, 100 is complete control
# [13] = Preemergence, 125 g ai/ha, 0 to 100 scale where 0 is no effect and 100 is complete control
# [14] = Preemergence, 500 g ai/ha, 0 to 100 scale (0 no effect, 100 complete control)
Compound,"Plant response rating, Morningglory [1, 11]","Morningglory plant response rating [1, 12]","Plant response rating, Morningglory [1, 13]","Plant response rating, Morningglory [1, 14]","Plant response rating, Ducksalad (0 to 100 scale, 0 is no effect, 100 is complete control) [2]","Plant response rating, Barnyardgrass (0 to 100 scale, 0 is no effect, 100 is complete control) [3]","Plant response rating, Crabgrass, Large [4, 11]","Crabgrass, Large plant response rating [4, 12]","Plant response rating, Crabgrass, Large [4, 13]","Plant response rating, Crabgrass, Large [4, 14]","Plant response rating, Foxtail, Giant [5, 11]","Foxtail, Giant plant response rating [5, 12]","Plant response rating, Foxtail, Giant [5, 13]","Plant response rating, Foxtail, Giant [5, 14]","Plant response rating, Corn (corn (Zea mays); [11])",Corn plant response rating (corn (Zea mays); [12]),"Plant response rating, Corn (corn (Zea mays); [13])","Plant response rating, Corn (corn (Zea mays); [14])","Plant response rating, Velvetleaf [6, 11]","Velvetleaf plant response rating [6, 12]",further results
CC(C)(C)c1nn(-c2ccc(F)cc2)nc1C(=O)c1ccnc(C(F)(F)F)c1 [Compound 175],0,0,0,0,0,0,0,0,0,0,0,0,0,0,0,0,0,0,0,0,"Plant response rating, Velvetleaf [6, 13]: 0; Plant response rating, Velvetleaf [6, 14]: 0; Plant response rating, Barnyardgrass [7, 11]: 0; Barnyardgrass plant response rating [7, 12]: 0; Plant response rating, Barnyardgrass [7, 13]: 0; Plant response rating, Barnyardgrass [7, 14]: 0; Plant response rating, Sedge, Umbrella (0 to 100 scale, 0 is no effect, 100 is complete control) [8]: 0; Plant response rating, Pigweed [9, 11]: 0; Pigweed plant response rating [9, 12]: 0; Plant response rating, Pigweed [9, 13]: 0; Plant response rating, Pigweed [9, 14]: 0; Plant response rating, Wheat [10, 11]: 0; Wheat plant response rating [10, 12]: 0; Plant response rating, Wheat [10, 13]: 0; Plant response rating, Wheat [10, 14]: 0; Plant response rating, Rice (0 to 100 scale, 0 is no effect, 100 is complete control) (rice (Oryza sativa)): 0"
CCc1nn(-c2ccc(F)cc2F)nc1Oc1ccnc(C(F)(F)F)c1 [Compound 178],90,100,0,60,30,0,90,90,90,100,60,90,90,100,20,30,0,10,60,100,"Plant response rating, Velvetleaf [6, 13]: 10; Plant response rating, Velvetleaf [6, 14]: 60; Plant response rating, Barnyardgrass [7, 11]: 30; Barnyardgrass plant response rating [7, 12]: 80; Plant response rating, Barnyardgrass [7, 13]: 20; Plant response rating, Barnyardgrass [7, 14]: 100; Plant response rating, Sedge, Umbrella (0 to 100 scale, 0 is no effect, 100 is complete control) [8]: 60; Plant response rating, Pigweed [9, 11]: 100; Pigweed plant response rating [9, 12]: 100; Plant response rating, Pigweed [9, 13]: 100; Plant response rating, Pigweed [9, 14]: 100; Plant response rating, Wheat [10, 11]: 20; Wheat plant response rating [10, 12]: 40; Plant response rating, Wheat [10, 13]: 0; Plant response rating, Wheat [10, 14]: 10; Plant response rating, Rice (0 to 100 scale, 0 is no effect, 100 is complete control) (rice (Oryza sativa)): 20"
